Test [1] deals with wheat. Description: Test A pre-/postemergence greenhouse test. Format: in vivo, Triticum aestivum. Conditions: for Wheat plant response rating: 0 to 100 scale; for Plant response rating, Wheat: 0 to 100 scale where 0 is no effect and 100 is complete control. The gist of the method: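 Herbicidal effect is a visual injury score given about ten days post-treatment by comparison with untreated controls. Preemergence plots received a directed spray onto sown loam–sand soil; postemergence plants, at the one- to two-leaf stage and 2–10 cm tall, were sprayed at the same time.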

In test [2] the test system is umbrella sedge. Description: Test C flooded paddy test. Format: in vivo, Cyperus difformis. Conditions: Flood. In a few lines: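 Under a constant 3 cm flood, test compounds went directly into the paddy water. Following 13 to 15 days of greenhouse growth, treated species and controls were compared by eye.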
Test [3] deals with crabgrass. Description: Test C pre-/postemergence test. Format: in vivo, Digitaria sanguinalis. The source says:
(§1) Seeds of plant species selected from blackgrass (Alopecurus myosuroides), downy brome (Bromus tectorum), green foxtail (Setaria viridis), Italian ryegrass (Lolium multiflorum), wheat (Triticum aestivum), wild oat (Avena fatua), catchweed bedstraw (Galium aparine), Russian thistle (Salsola kali), […] (Cynodon dactylon), Surinam grass (Brachiaria decumbens), cocklebur (Xanthium strumarium), corn (Zea mays), crabgrass (Digitaria sanguinalis), woolly cupgrass (Eriochloa villosa), giant foxtail (Setaria faberii), Goosegrass (Eleusin indica), johnsongrass (Sorghum halepense), kochia (Kochia scoparia), lambsquarters (Chenopodium album), morningglory (Ipomoea coccinea), eastern black nightshade (Solanum ptycanthum), yellow nutsedge (Cyperus esculentus), pigweed (Amaranthus retroflexus), common ragweed (Ambrosia elation), soybean (Glycine max), common (oilseed) sunflower (Helianthus annuus), and velvetleaf (Abutilon theophrasti) were planted and treated preemergence with test chemicals formulated in a non-phytotoxic solvent mixture which included a surfactant. At the same time, plants selected from these crop and weed species and also winter barley (Hordeum vulgare), canarygrass (Phalaris minor), and chickweed (Stellaria media) were treated with postemergence applications of some of the test chemicals formulated in the same manner. Plants ranged in height from 2 to 18 cm (1- to 4-leaf stage) for postemergence treatments. […] At time of treatment, test pots were flooded to 3 cm above the soil surface, treated by application of test compounds directly to the paddy water, and then maintained at that water depth for the duration of the test. […] A dash (-) response means no test result.

The subject of test [4] is Goosegrass. Description: Test C pre-/postemergence test. Format: in vivo, Eleusin indica.
Excerpt: as §1

Where [5] appears, read: Postemergence, 125 g ai/ha, 0 is no effect, 100 is complete control.
The mark [6] stands for this setting: Postemergence, 500 g ai/ha, 0 is no effect, 100 is complete control.
Setting [7] is: Preemergence, 125 g ai/ha, 0 no effect, 100 complete control.
Setting [8] is: 31 g ai/ha, scale 0 to 100 (0 no effect, 100 complete control).
The mark [9] stands for this setting: 62 g ai/ha, scale 0 to 100, 0 no effect, 100 complete control, 13 to 15 days.
Setting [10] is: 125 g ai/ha, scale 0 to 100, 0 no effect, 100 complete control, 13 to 15 days.
[11] abbreviates: 250 g ai/ha, scale 0 to 100, 0 no effect, 100 complete control, 13 to 15 days.
[12] abbreviates: 62 g ai/ha, Preemergence, scale 0 to 100.
The mark [13] stands for this setting: 125 g ai/ha, preemergence, scale 0 (no effect) to 100 (complete control).
Where [14] appears, read: Preemergence, 31 g ai/ha, scale 0 to 100 (0 no effect, 100 complete control).
The mark [15] stands for this setting: preemergence, 250 g ai/ha, scale 0 (no effect) to 100 (complete control).
[16] abbreviates: Postemergence, 62 g ai/ha, scale 0 to 100, 0 no effect, 100 complete control.
The mark [17] stands for this setting: Postemergence, 125 g ai/ha, scale 0 to 100, 0 no effect, 100 complete control.
Where [18] appears, read: Postemergence, 250 g ai/ha, scale 0 to 100, 0 no effect, 100 complete control.
Setting [19] is: 250 g ai/ha, scale 0 to 100 (0 no effect, 100 complete control).
Setting [20] is: 31 g ai/ha, Preemergence, scale 0 to 100.
Setting [21] is: 62 g ai/ha, preemergence, scale 0 (no effect) to 100 (complete control).
[22] abbreviates: preemergence, 125 g ai/ha, scale 0 (no effect) to 100 (complete control).

On to `Cn1nc(C(F)(F)F)c(C[S+]([O-])c2cc(Cl)cc[n+]2[O-])c1Cl` (racemic) [Compound 39], for which the entries for the “Wheat plant response rating” value in test [1] (setting [5]), in test [1] (setting [6]) and in test [1] (setting [7]) were 60, 60 and 50, respectively. The “Plant response rating, Wheat” value in test [1] (Preemergence, 500 g ai/ha) turned out to be 70. Also, the “Plant response rating, Sedge, Umbrella” value is 70 in test [2] (setting [8]), 85 in test [2] (setting [9]), 95 in test [2] (setting [10]) and 95 in test [2] (setting [11]). In addition, the “Crabgrass, Large plant response rating” value in test [3] (setting [12]) is listed as 90; in test [3] (setting [13]), 100; in test [3] (setting [15]) it was 100. For the same molecule, the “Plant response rating, Crabgrass, Large” value in test [3] (setting [14]) is reported as 80. Moreover, the “Goosegrass plant response rating” value in test [4] (setting [12]), in test [4] (setting [13]) and in test [4] (setting [15]) was 100 in each case. Besides, the “Plant response rating, Goosegrass” value in test [4] (setting [14]) stood at 98.

With `CC(c1c(C(F)(F)F)nn(C)c1Cl)S(=O)(=O)c1ccc(Cl)c[n+]1[O-]` (racemic) [Compound 40], the figures for the “Wheat plant response rating” value in test [1] (setting [5]), in test [1] (setting [6]) and in test [1] (setting [7]) were 30, 50 and 0, respectively. In addition, the “Plant response rating, Wheat” value in test [1] (Preemergence, 500 g ai/ha) is listed as 40. The “Plant response rating, Sedge, Umbrella” value was 20 in test [2] (setting [8]), 45 in test [2] (setting [9]), 75 in test [2] (setting [10]) and 85 in test [2] (setting [11]). Besides, the “Plant response rating (0 to 100), Crabgrass, Large” value in test [3] (Postemergence, 31 g ai/ha) was determined as 0. Besides, the “Plant response rating, Crabgrass, Large” value in test [3] (setting [16]), in test [3] (setting [17]) and in test [3] (setting [18]) was 0 throughout. For the same molecule, the “Plant response rating (0 to 100), Goosegrass” value in test [4] (Postemergence, 31 g ai/ha) worked out at 0. Further, the “Plant response rating, Goosegrass” value in test [4] (setting [16]), in test [4] (setting [17]) and in test [4] (setting [18]) was 0 in each case.

In the case of `Cn1nc(C(F)(F)F)c(C[S+]([O-])c2cc(F)cc[n+]2[O-])c1Cl` (racemic) [Compound 42], the results for the “Wheat plant response rating” value in test [1] (setting [5]), in test [1] (setting [6]) and in test [1] (setting [7]) were 40, 50 and 20, respectively. In test [1] (Preemergence, 500 g ai/ha), the “Plant response rating, Wheat” value amounted to 60. In addition, the “Plant response rating, Sedge, Umbrella” value is on record as 80 in test [2] (setting [8]), 85 in test [2] (setting [9]), 90 in test [2] (setting [10]) and 95 in test [2] (setting [11]). In addition, the “Crabgrass, Large plant response rating” value in test [3] (setting [12]), in test [3] (setting [13]) and in test [3] (setting [15]) was 100 throughout. Further, the “Plant response rating, Crabgrass, Large” value in test [3] (setting [14]) was determined as 95. Also, the “Goosegrass plant response rating” value in test [4] (setting [12]), in test [4] (setting [13]) and in test [4] (setting [15]) was 100 throughout. Further, in test [4] (setting [14]), the “Plant response rating, Goosegrass” value is 85.

`CCn1nc(C(F)(F)F)c(C[S+]([O-])c2cccc[n+]2[O-])c1OCC(F)(F)F` (racemic) [Compound 65]: the “Plant response rating, Wheat” value in test [1] (Postemergence, 125 g ai/ha) is reported as 60; in test [1] (Preemergence, 500 g ai/ha) it was 100. For the same molecule, the “Wheat plant response rating” value in test [1] (setting [6]) was determined as 70; in test [1] (setting [7]), 80. Moreover, the “Plant response rating, Sedge, Umbrella” value is 60 in test [2] (62 g ai/ha, scale 0 to 100 (0 no effect, 100 complete control)) and 100 in test [2] (setting [11]). Further, the “Crabgrass, Large plant response rating” value in test [3] (setting [12]), in test [3] (setting [13]) and in test [3] (setting [15]) was 100 each time. Also, the “Plant response rating (0 to 100), Crabgrass, Large” value in test [3] (Postemergence, 31 g ai/ha) is recorded as 0. Besides, the “Plant response rating, Crabgrass, Large” value in test [3] (setting [16]) worked out at 0; in test [3] (setting [17]) it was 0; in test [3] (setting [18]) it was 60; in test [3] (setting [14]) it was 60. Further, the “Goosegrass plant response rating” value in test [4] (setting [12]), in test [4] (setting [13]) and in test [4] (setting [15]) was 100 throughout. In test [4] (Postemergence, 31 g ai/ha), the “Plant response rating (0 to 100), Goosegrass” value was 0. Besides, the “Plant response rating, Goosegrass” value is reported as 0 in test [4] (setting [16]), 0 in test [4] (setting [17]), 70 in test [4] (setting [18]) and 100 in test [4] (setting [14]).

As to `Cn1nc(C(F)(F)F)c(CS(=O)(=O)c2ccc(Cl)c[n+]2[O-])c1OC(F)F` [Compound 7], the “Wheat plant response rating” value in test [1] (setting [5]) is 0; in test [1] (setting [6]), 20; in test [1] (setting [7]), 20. Also, the “Plant response rating, Wheat” value in test [1] (Preemergence, 500 g ai/ha) came to 50. Also, the “Plant response rating, Sedge, Umbrella” value was 0 in test [2] (setting [8]), 40 in test [2] (setting [9]), 55 in test [2] (setting [10]) and 60 in test [2] (setting [19]). In addition, the “Crabgrass, Large plant response rating” value in test [3] (setting [20]), in test [3] (setting [21]) and in test [3] (setting [22]) was 100 throughout. Moreover, in test [3] (Preemergence, 250 g ai/ha), the “Plant response rating (0 to 100), Crabgrass, Large” value is 100. Also, the “Goosegrass plant response rating” value in test [4] (setting [20]), in test [4] (setting [21]) and in test [4] (setting [22]) was 100 in each case. In addition, the “Plant response rating (0 to 100), Goosegrass” value in test [4] (Preemergence, 250 g ai/ha) is 100.

With `Cn1nc(C(F)(F)F)c(CS(=O)(=O)c2cccc[n+]2[O-])c1Cl` [Compound 9], the “Wheat plant response rating” value in test [1] (setting [5]) is 40; in test [1] (setting [6]) it was 60; in test [1] (setting [7]), 50. The “Plant response rating, Wheat” value in test [1] (Preemergence, 500 g ai/ha) is on record as 70. Also, the “Plant response rating, Sedge, Umbrella” value in test [2] (setting [8]) came to 0; in test [2] (setting [9]), 85; in test [2] (setting [10]), 90; in test [2] (setting [19]), 100. Also, the “Crabgrass, Large plant response rating” value in test [3] (setting [20]) and in test [3] (setting [22]) was 100 throughout. The “Plant response rating (0 to 100), Crabgrass, Large” value in test [3] (Preemergence, 250 g ai/ha) is recorded as 100. The “Goosegrass plant response rating” value in test [4] (setting [20]) and in test [4] (setting [22]) was 100 each time. Further, in test [4] (Preemergence, 250 g ai/ha), the “Plant response rating (0 to 100), Goosegrass” value is listed as 100.

Turning to `CC(c1c(C(F)(F)F)nn(C)c1Cl)S(=O)(=O)c1cccc[n+]1[O-]` (centres unmarked) [Compound 10], the “Wheat plant response rating” value in test [1] (setting [5]) came out at 50; in test [1] (setting [6]) it was 70; in test [1] (setting [7]), 60. For the same molecule, the “Plant response rating, Wheat” value in test [1] (Preemergence, 500 g ai/ha) is 80. Besides, the “Plant response rating, Sedge, Umbrella” value in test [2] (setting [8]) worked out at 40; in test [2] (setting [9]), 80; in test [2] (setting [10]), 90; in test [2] (setting [19]) it was 90. Moreover, the “Crabgrass, Large plant response rating” value in test [3] (setting [20]), in test [3] (setting [21]) and in test [3] (setting [22]) was 100 throughout. Moreover, in test [3] (Preemergence, 250 g ai/ha), the “Plant response rating (0 to 100), Crabgrass, Large” value was determined as 100. Further, the “Goosegrass plant response rating” value in test [4] (setting [20]), in test [4] (setting [21]) and in test [4] (setting [22]) was 100 in each case. The “Plant response rating (0 to 100), Goosegrass” value in test [4] (Preemergence, 250 g ai/ha) worked out at 100.

The record behind these values is patent US20100298141A1, “SUBSTITUTED PYRIDINE N-OXIDE HERBICIDES” (E. I. DU PONT DE NEMOURS AND COMPANY, priority 2007, published 2010).
